Reference: patent US12642797B2, “Coated granule, solid dispersion, and preparation containing vortioxetine hydrobromide for oral taste masking” (Seasons Biotechnology (Taizhou) Co., Ltd., priority 2019, dated 2026)
Counter-ions that a name gives are not always drawn.

Assays:
oral cavity and tongue = assay: Taste and irritation test by subjects (self-made sample vs reference sample); format: in vivo, human; conditions: for Instantaneous irritation / Delayed irritation: hemihydrobromide
Method: In the examples, the taste masking effects of test samples were evaluated by the subject's perception of the bitterness and irritation of the oral cavity and tongue. The Taste and Irritation Classification Tested by the Subjects: [table]

tongue = assay: Comparative Example 1: comparison of taste of different vortioxetine salts (10 subjects, 30 attempts); conditions: converted to the same amount of C18H22N2S
Method: The vortioxetine lactate salt, vortioxetine hydrobromide and vortioxetine hemihydrobromide equivalent to 5 mg of vortioxetine respectively over 100 mesh powders were put directly in front of the upper part of the tongue for one minute. There were 10 subjects in each salt-type group, and each subject randomly tried each salt-type 3 times. After trying one salt-type taste, rinsed your mouth, and try another salt-type after there was no irritation. After trying the taste, record the bitterness level and tongue irritation, spit it out a few seconds later, rinse your mouth, record the time for the irritation to subside, eat 1-1.5 hours later, and record the irritation again.

Cc1ccc(Sc2ccccc2N2CCNCC2)c(C)c1 [vortioxetine hemihydrobromide]
Instantaneous irritation (oral cavity and tongue; Subject 4, 0-1 minute, powder equivalent to 20 mg of vortioxetine tasted, listed as Reference sample (1e)): ++ (+ + Irritating, tolerable) | Instantaneous irritation (oral cavity and tongue; Subject 4, 0-1 minute, powder equivalent to 20 mg of vortioxetine tasted, listed as Reference sample (2a)): ++ (+ + Irritating, tolerable) | Instantaneous irritation (oral cavity and tongue; Subject 4, 0-1 minute, powder equivalent to 20 mg of vortioxetine tasted, listed as Reference sample (2c)): ++ (+ + Irritating, tolerable) | Instantaneous irritation (oral cavity and tongue; Subject 4, 0-1 minute, powder equivalent to 20 mg of vortioxetine tasted, listed as Reference sample (3a)): +++ (+ + + Strong irritation, intolerable) | Instantaneous irritation (oral cavity and tongue; Subject 4, 0-1 minute, powder equivalent to 20 mg of vortioxetine tasted, listed as Reference sample (3b)): +++ (+ + + Strong irritation, intolerable) | Instantaneous irritation (oral cavity and tongue; Subject 4, 0-1 minute, powder equivalent to 20 mg of vortioxetine tasted, listed as Reference sample (3c)): +++ (+ + + Strong irritation, intolerable) | Instantaneous irritation (oral cavity and tongue; Subject 4, 0-1 minute, powder equivalent to 20 mg of vortioxetine tasted, listed as Reference sample (4a)): +++ (+ + + Strong irritation, intolerable) | Instantaneous irritation (oral cavity and tongue; Subject 4, 0-1 minute, powder equivalent to 20 mg of vortioxetine tasted, listed as Reference sample (1d)): ++ (+ + Irritating, tolerable) | Instantaneous irritation (oral cavity and tongue; Subject 4, 0-1 minute, powder equivalent to 20 mg of vortioxetine tasted, listed as Reference sample (2d)): ++ (+ + Irritating, tolerable) | Delayed irritation (oral cavity and tongue; Subject 4, powder equivalent to 20 mg of vortioxetine tasted, listed as Reference sample (1a)): 15 to 30 min | Delayed irritation (oral cavity and tongue; Subject 4, powder equivalent to 20 mg of vortioxetine tasted, listed as Reference sample (1e)): 15 to 30 min | Delayed irritation (oral cavity and tongue; Subject 4, powder equivalent to 20 mg of vortioxetine tasted, listed as Reference sample (2a)): >30 min | Delayed irritation (oral cavity and tongue; Subject 4, powder equivalent to 20 mg of vortioxetine tasted, listed as Reference sample (2c)): >30 min | Delayed irritation (oral cavity and tongue; Subject 4, powder equivalent to 20 mg of vortioxetine tasted, listed as Reference sample (3a)): 1 to 15 min | Delayed irritation (oral cavity and tongue; Subject 4, powder equivalent to 20 mg of vortioxetine tasted, listed as Reference sample (3b)): 1 to 15 min | Delayed irritation (oral cavity and tongue; Subject 4, powder equivalent to 20 mg of vortioxetine tasted, listed as Reference sample (3c)): >30 min | Delayed irritation (oral cavity and tongue; Subject 4, powder equivalent to 20 mg of vortioxetine tasted, listed as Reference sample (4a)): >30 min | Delayed irritation (oral cavity and tongue; Subject 4, powder equivalent to 20 mg of vortioxetine tasted, listed as Reference sample (5)): >30 min | Delayed irritation (oral cavity and tongue; Subject 4, powder equivalent to 20 mg of vortioxetine tasted, listed as Reference sample (6)): 15 to 30 min | Delayed irritation (oral cavity and tongue; Subject 4, powder equivalent to 20 mg of vortioxetine tasted, listed as Reference sample (7a)): >30 min | Delayed irritation (oral cavity and tongue; Subject 4, powder equivalent to 20 mg of vortioxetine tasted, listed as Reference sample (8a)): >30 min | Delayed irritation (oral cavity and tongue; Subject 4, powder equivalent to 20 mg of vortioxetine tasted, listed as Reference sample (8b)): >30 min | Delayed irritation (oral cavity and tongue; Subject 4, powder equivalent to 20 mg of vortioxetine tasted, listed as Reference sample (1d)): 15 to 30 min | Delayed irritation (oral cavity and tongue; Subject 4, powder equivalent to 20 mg of vortioxetine tasted, listed as Reference sample (2d)): >30 min | Instantaneous irritation (oral cavity and tongue; Subject 5, 0-1 minute, powder equivalent to 20 mg of vortioxetine tasted, listed as Reference sample (1a)): +++ (+ + + Strong irritation, intolerable) | Instantaneous irritation (oral cavity and tongue; Subject 5, 0-1 minute, powder equivalent to 20 mg of vortioxetine tasted, listed as Reference sample (1e)): +++ (+ + + Strong irritation, intolerable) | Instantaneous irritation (oral cavity and tongue; Subject 5, 0-1 minute, powder equivalent to 20 mg of vortioxetine tasted, listed as Reference sample (2a)): +++ (+ + + Strong irritation, intolerable) | Instantaneous irritation (oral cavity and tongue; Subject 5, 0-1 minute, powder equivalent to 20 mg of vortioxetine tasted, listed as Reference sample (2c)): +++ (+ + + Strong irritation, intolerable) | Instantaneous irritation (oral cavity and tongue; Subject 5, 0-1 minute, powder equivalent to 20 mg of vortioxetine tasted, listed as Reference sample (3a)): +++ (+ + + Strong irritation, intolerable) | Instantaneous irritation (oral cavity and tongue; Subject 5, 0-1 minute, powder equivalent to 20 mg of vortioxetine tasted, listed as Reference sample (3b)): +++ (+ + + Strong irritation, intolerable) | Instantaneous irritation (oral cavity and tongue; Subject 5, 0-1 minute, powder equivalent to 20 mg of vortioxetine tasted, listed as Reference sample (3c)): ++ (+ + Irritating, tolerable) | Instantaneous irritation (oral cavity and tongue; Subject 5, 0-1 minute, powder equivalent to 20 mg of vortioxetine tasted, listed as Reference sample (4a)): ++ (+ + Irritating, tolerable) | Instantaneous irritation (oral cavity and tongue; Subject 5, 0-1 minute, powder equivalent to 20 mg of vortioxetine tasted, listed as Reference sample (1d)): +++ (+ + + Strong irritation, intolerable) | Instantaneous irritation (oral cavity and tongue; Subject 5, 0-1 minute, powder equivalent to 20 mg of vortioxetine tasted, listed as Reference sample (2d)): ++ (+ + Irritating, tolerable) | Delayed irritation (oral cavity and tongue; Subject 5, powder equivalent to 20 mg of vortioxetine tasted, listed as Reference sample (1a)): >30 min | Delayed irritation (oral cavity and tongue; Subject 5, powder equivalent to 20 mg of vortioxetine tasted, listed as Reference sample (1e)): >30 min | Delayed irritation (oral cavity and tongue; Subject 5, powder equivalent to 20 mg of vortioxetine tasted, listed as Reference sample (2a)): 15 to 30 min | Delayed irritation (oral cavity and tongue; Subject 5, powder equivalent to 20 mg of vortioxetine tasted, listed as Reference sample (2c)): 15 to 30 min | Delayed irritation (oral cavity and tongue; Subject 5, powder equivalent to 20 mg of vortioxetine tasted, listed as Reference sample (3a)): 1 to 15 min | Delayed irritation (oral cavity and tongue; Subject 5, powder equivalent to 20 mg of vortioxetine tasted, listed as Reference sample (3b)): 1 to 15 min | Delayed irritation (oral cavity and tongue; Subject 5, powder equivalent to 20 mg of vortioxetine tasted, listed as Reference sample (3c)): >30 min | Delayed irritation (oral cavity and tongue; Subject 5, powder equivalent to 20 mg of vortioxetine tasted, listed as Reference sample (4a)): 15 to 30 min | Delayed irritation (oral cavity and tongue; Subject 5, powder equivalent to 20 mg of vortioxetine tasted, listed as Reference sample (5)): 15 to 30 min | Delayed irritation (oral cavity and tongue; Subject 5, powder equivalent to 20 mg of vortioxetine tasted, listed as Reference sample (6)): >30 min | Delayed irritation (oral cavity and tongue; Subject 5, powder equivalent to 20 mg of vortioxetine tasted, listed as Reference sample (7a)): >30 min | Delayed irritation (oral cavity and tongue; Subject 5, powder equivalent to 20 mg of vortioxetine tasted, listed as Reference sample (8a)): 15 to 30 min | Delayed irritation (oral cavity and tongue; Subject 5, powder equivalent to 20 mg of vortioxetine tasted, listed as Reference sample (8b)): 15 to 30 min | Delayed irritation (oral cavity and tongue; Subject 5, powder equivalent to 20 mg of vortioxetine tasted, listed as Reference sample (1d)): >30 min | Delayed irritation (oral cavity and tongue; Subject 5, powder equivalent to 20 mg of vortioxetine tasted, listed as Reference sample (2d)): 15 to 30 min | Delayed irritation, time to disappear (oral cavity and tongue; average of 5 subjects, powder equivalent to 20 mg of vortioxetine): more than 30 minutes | Instantaneous irritation (oral cavity and tongue; average of 5 subjects, powder equivalent to 20 mg of vortioxetine, listed as Reference sample (1a)): +++ (+ + + Strong irritation, intolerable) | Instantaneous irritation (oral cavity and tongue; average of 5 subjects, powder equivalent to 20 mg of vortioxetine, listed as Reference sample (1e)): +++ (+ + + Strong irritation, intolerable) | Instantaneous irritation (oral cavity and tongue; average of 5 subjects, powder equivalent to 20 mg of vortioxetine, listed as Reference sample (2a)): +++ (+ + + Strong irritation, intolerable) | Instantaneous irritation (oral cavity and tongue; average of 5 subjects, powder equivalent to 20 mg of vortioxetine, listed as Reference sample (2c)): ++ (+ + Irritating, tolerable) | Instantaneous irritation (oral cavity and tongue; average of 5 subjects, powder equivalent to 20 mg of vortioxetine, listed as Reference sample (3a)): ++ (+ + Irritating, tolerable) | Instantaneous irritation (oral cavity and tongue; average of 5 subjects, powder equivalent to 20 mg of vortioxetine, listed as Reference sample (3b)): ++ (+ + Irritating, tolerable) | Instantaneous irritation (oral cavity and tongue; average of 5 subjects, powder equivalent to 20 mg of vortioxetine, listed as Reference sample (3c)): ++ (+ + Irritating, tolerable) | Instantaneous irritation (oral cavity and tongue; average of 5 subjects, powder equivalent to 20 mg of vortioxetine, listed as Reference sample (4a)): +++ (+ + + Strong irritation, intolerable) | Instantaneous irritation (oral cavity and tongue; average of 5 subjects, powder equivalent to 20 mg of vortioxetine, listed as Reference sample (5)): ++ (+ + Irritating, tolerable) | Instantaneous irritation (oral cavity and tongue; average of 5 subjects, powder equivalent to 20 mg of vortioxetine, listed as Reference sample (6)): ++ (+ + Irritating, tolerable) | Instantaneous irritation (oral cavity and tongue; average of 5 subjects, powder equivalent to 20 mg of vortioxetine, listed as Reference sample (7a)): +++ (+ + + Strong irritation, intolerable) | Instantaneous irritation (oral cavity and tongue; average of 5 subjects, powder equivalent to 20 mg of vortioxetine, listed as Reference sample (8a)): ++ (+ + Irritating, tolerable) | Instantaneous irritation (oral cavity and tongue; average of 5 subjects, powder equivalent to 20 mg of vortioxetine, listed as Reference sample (8b)): ++ (+ + Irritating, tolerable) | Instantaneous irritation (oral cavity and tongue; average of 5 subjects, powder equivalent to 20 mg of vortioxetine, listed as Reference sample (9a)): +++ (+ + + Strong irritation, intolerable) | Instantaneous irritation (oral cavity and tongue; average of 5 subjects, powder equivalent to 20 mg of vortioxetine, listed as Reference sample (9c)): +++ (+ + + Strong irritation, intolerable) | Instantaneous irritation (oral cavity and tongue; average of 5 subjects, powder equivalent to 20 mg of vortioxetine, listed as Reference sample (9e)): ++ (+ + Irritating, tolerable) | Instantaneous irritation (oral cavity and tongue; average of 5 subjects, powder equivalent to 20 mg of vortioxetine, listed as Reference sample (11a)): ++ (+ + Irritating, tolerable) | Instantaneous irritation (oral cavity and tongue; average of 5 subjects, powder equivalent to 20 mg of vortioxetine, listed as Reference sample (12a)): +++ (+ + + Strong irritation, intolerable) | Instantaneous irritation (oral cavity and tongue; average of 5 subjects, powder equivalent to 20 mg of vortioxetine, listed as Reference sample (12b)): +++ (+ + + Strong irritation, intolerable) | Instantaneous irritation (oral cavity and tongue; average of 5 subjects, powder equivalent to 20 mg of vortioxetine, listed as Reference sample (13a)): ++ (+ + Irritating, tolerable) | Instantaneous irritation (oral cavity and tongue; average of 5 subjects, powder equivalent to 20 mg of vortioxetine, listed as Reference sample (13b)): ++ (+ + Irritating, tolerable) | Instantaneous irritation (oral cavity and tongue; average of 5 subjects, powder equivalent to 20 mg of vortioxetine, listed as Reference sample (14a)): ++ (+ + Irritating, tolerable) | Instantaneous irritation (oral cavity and tongue; average of 5 subjects, powder equivalent to 20 mg of vortioxetine, listed as Reference sample (16)): ++ (+ + Irritating, tolerable) | Instantaneous irritation (oral cavity and tongue; average of 5 subjects, powder equivalent to 20 mg of vortioxetine, listed as Reference sample (17)): ++ (+ + Irritating, tolerable) | Instantaneous irritation (oral cavity and tongue; average of 5 subjects, powder equivalent to 20 mg of vortioxetine, listed as Reference sample (1d)): +++ (+ + + Strong irritation, intolerable) | Instantaneous irritation (oral cavity and tongue; average of 5 subjects, powder equivalent to 20 mg of vortioxetine, listed as Reference sample (2d)): ++ (+ + Irritating, tolerable) | Instantaneous irritation (oral cavity and tongue; average of 5 subjects, powder equivalent to 20 mg of vortioxetine, listed as Reference sample (9d)): ++ (+ + Irritating, tolerable) | Irritation compared with vortioxetine hydrobromide, in words (tongue): significantly less irritating
